Measured values published in ChEMBL document CHEMBL2177061, “Factors influencing the specificity of inhibitor binding to the human and malaria parasite dihydroorotate dehydrogenases” (J Med Chem, 2012).
Residue numbers refer to the chain shown, from its start.

Legend:
[1] = system: T1, Dihydroorotate dehydrogenase (quinone), mitochondrial (Plasmodium falciparum (isolate 3D7)), Q08210 [F188Y]; test: Inhibition of Plasmodium falciparum […] dehydrogenase F188Y mutant expressed in Escherichia coli BL21(DE3) using […] as substrate at 100 uM by DCIP-based colorimetric analysis
T1 sequence (whole entry): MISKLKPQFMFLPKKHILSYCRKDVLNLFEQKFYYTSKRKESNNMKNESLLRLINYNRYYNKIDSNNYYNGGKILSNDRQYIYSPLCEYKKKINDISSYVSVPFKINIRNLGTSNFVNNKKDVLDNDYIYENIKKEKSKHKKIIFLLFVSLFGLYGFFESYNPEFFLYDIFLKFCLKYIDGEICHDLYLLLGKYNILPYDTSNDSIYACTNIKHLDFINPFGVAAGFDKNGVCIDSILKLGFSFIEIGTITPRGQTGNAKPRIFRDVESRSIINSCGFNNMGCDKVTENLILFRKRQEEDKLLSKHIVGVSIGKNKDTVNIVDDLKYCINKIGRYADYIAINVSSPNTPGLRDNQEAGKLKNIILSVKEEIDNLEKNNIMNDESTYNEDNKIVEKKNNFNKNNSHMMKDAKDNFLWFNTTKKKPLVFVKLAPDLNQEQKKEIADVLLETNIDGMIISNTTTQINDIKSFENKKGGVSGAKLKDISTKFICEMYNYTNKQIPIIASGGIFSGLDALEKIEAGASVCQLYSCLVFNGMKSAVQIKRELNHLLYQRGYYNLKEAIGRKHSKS

[2] = system: T2, Dihydroorotate dehydrogenase (quinone), mitochondrial (Plasmodium falciparum (isolate 3D7)), Q08210 [C276Y]; test: Inhibition of Plasmodium falciparum […] dehydrogenase C276Y mutant expressed in Escherichia coli BL21(DE3) using […] as substrate at 100 uM by DCIP-based colorimetric analysis
T2 sequence (whole entry): T1 sequence (whole entry) with Y188F, C276Y

[3] = system: T3, Dihydroorotate dehydrogenase (quinone), mitochondrial (Plasmodium falciparum (isolate 3D7)), Q08210 [C276F]; test: Inhibition of Plasmodium falciparum […] dehydrogenase C276F mutant expressed in Escherichia coli BL21(DE3) using […] as substrate at 100 uM by DCIP-based colorimetric analysis
T3 sequence (whole entry): T1 sequence (whole entry) with Y188F, C276F

[4] = system: T4, Dihydroorotate dehydrogenase (quinone), mitochondrial (Plasmodium falciparum (isolate 3D7)), Q08210 [H185A]; test: Inhibition of Plasmodium falciparum […] dehydrogenase H185A mutant expressed in Escherichia coli BL21(DE3) using […] as substrate at 100 uM by DCIP-based colorimetric analysis
T4 sequence (whole entry): T1 sequence (whole entry) with H185A, Y188F

Plasmodium falciparum [5] = test: Ratio of IC50 for Plasmodium falciparum […] dehydrogenase C276A mutant to IC50 for Plasmodium falciparum wild type […] dehydrogenase
Homo sapiens [6] = species: Homo sapiens; test: Inhibition of human […] dehydrogenase Y147F mutant expressed in Escherichia coli BL21(DE3) using […] as substrate at 100 uM by DCIP-based colorimetric analysis
Homo sapiens [7] = species: Homo sapiens; test: Inhibition of human […] dehydrogenase Y147C mutant expressed in Escherichia coli BL21(DE3) using […] as substrate at 100 uM by DCIP-based colorimetric analysis
Homo sapiens [8] = species: Homo sapiens; test: Inhibition of human […] dehydrogenase Y147A mutant expressed in Escherichia coli BL21(DE3) using […] as substrate at 100 uM by DCIP-based colorimetric analysis
Homo sapiens [9] = species: Homo sapiens; test: Inhibition of human […] dehydrogenase H56A mutant expressed in Escherichia coli BL21(DE3) using […] as substrate at 100 uM by DCIP-based colorimetric analysis
[10] = biological target: Dihydroorotate dehydrogenase (quinone), mitochondrial (Homo sapiens, UniProt Q02127); test: Inhibition of human […] dehydrogenase expressed in Escherichia coli BL21(DE3) using […] as substrate by DCIP-based colorimetric analysis
Sequence of Dihydroorotate dehydrogenase (quinone), mitochondrial (Q02127 whole entry): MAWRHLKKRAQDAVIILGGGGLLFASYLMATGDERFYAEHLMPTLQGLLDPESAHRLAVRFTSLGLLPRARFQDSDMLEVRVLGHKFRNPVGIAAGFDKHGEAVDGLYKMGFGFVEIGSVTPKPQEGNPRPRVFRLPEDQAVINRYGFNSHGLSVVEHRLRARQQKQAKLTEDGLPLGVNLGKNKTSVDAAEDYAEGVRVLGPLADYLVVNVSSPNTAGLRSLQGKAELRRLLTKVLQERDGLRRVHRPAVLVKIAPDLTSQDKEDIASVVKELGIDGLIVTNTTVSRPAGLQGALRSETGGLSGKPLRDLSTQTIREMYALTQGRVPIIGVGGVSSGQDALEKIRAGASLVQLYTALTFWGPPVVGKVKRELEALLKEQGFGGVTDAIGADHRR

[11] = biological target: T5, Dihydroorotate dehydrogenase (Plasmodium falciparum, UniProt Q54A96); test: Inhibition of Plasmodium falciparum […] dehydrogenase expressed in Escherichia coli BL21(DE3) using […] as substrate by DCIP-based colorimetric analysis
T5 sequence (Q54A96 whole entry): T1 sequence (whole entry) with Y188F

Homo sapiens [12] = species: Homo sapiens; test: Ratio of IC50 for human dihydrofolate dehydrogenase Y147F mutant to IC50 for human wild type dihydrofolate dehydrogenase
Homo sapiens [13] = species: Homo sapiens; test: Ratio of IC50 for human dihydrofolate dehydrogenase Y147C mutant to IC50 for human wild type dihydrofolate dehydrogenase
Homo sapiens [14] = species: Homo sapiens; test: Ratio of IC50 for human […] dehydrogenase H56A mutant to IC50 for human wild type […] dehydrogenase
Homo sapiens [15] = species: Homo sapiens; test: Ratio of IC50 for human dihydrofolate dehydrogenase Y147A mutant to IC50 for human wild type dihydrofolate dehydrogenase
Plasmodium falciparum [16] = test: Ratio of IC50 for Plasmodium falciparum […] dehydrogenase F188A mutant to IC50 for Plasmodium falciparum wild type […] dehydrogenase
Plasmodium falciparum [17] = test: Ratio of IC50 for Plasmodium falciparum […] dehydrogenase C276Y mutant to IC50 for Plasmodium falciparum wild type […] dehydrogenase
Plasmodium falciparum [18] = test: Ratio of IC50 for Plasmodium falciparum […] dehydrogenase C276F mutant to IC50 for Plasmodium falciparum wild type […] dehydrogenase
Plasmodium falciparum [19] = test: Ratio of IC50 for Plasmodium falciparum […] dehydrogenase H185A mutant to IC50 for Plasmodium falciparum wild type […] dehydrogenase

Compound	IC50 [10]	IC50 [11]	also measured
Cc1cc(=O)n2nc(SCc3ccc(Cl)cc3)nc2[nH]1	39 µM	1 µM	inhibition [1]: < 50%; inhibition [2]: < 50%; inhibition [3]: < 50%; inhibition [4]: < 50%; Ratio IC50 (Plasmodium falciparum [5]): 1.5; inhibition (Homo sapiens [6]): < 50%; inhibition (Homo sapiens [7]): < 50%; inhibition (Homo sapiens [8]): < 50%; inhibition (Homo sapiens [9]): < 50%
Cc1cc(O)n2nc(SCc3ccccc3)nc2n1	89 µM	62 µM	–
Cc1cc(N)n2nc(SCc3ccc(Cl)c(Cl)c3)nc2n1	> 100 µM	> 100 µM	–
Cc1ccc(CSc2nc3[nH]c(C)cc(=O)n3n2)cc1	46 µM	26 µM	–
Cc1cc(NCc2ccccc2)n2nc(SCc3ccccc3)nc2n1	> 100 µM	> 100 µM	–
Cc1cc(O)n2nc(SCc3ccc(Cl)c(Cl)c3)nc2n1	6.5 µM	1.9 µM	inhibition [1]: < 50%; inhibition [2]: < 50%; inhibition [3]: < 50%; inhibition [4]: < 50%; Ratio IC50 (Plasmodium falciparum [5]): 2; inhibition (Homo sapiens [7]): < 50%; inhibition (Homo sapiens [8]): < 50%; inhibition (Homo sapiens [9]): < 50%; Ratio IC50 (Homo sapiens [12]): 8.8
COc1ccc(CSc2nc3nc(C)cc(O)n3n2)cc1	63 µM	21 µM	–
Cc1cc(N)n2nc(SCc3ccccc3)nc2n1	> 100 µM	> 100 µM	–
Cc1cc(O)n2nc(SCc3cc(Cl)ccc3Cl)nc2n1	0.051 µM	11 µM	inhibition [1]: < 50%; inhibition [2]: < 50%; inhibition [3]: < 50%; inhibition [4]: < 50%; Ratio IC50 (Plasmodium falciparum [5]): 3.7; Ratio IC50 (Homo sapiens [12]): 1.1; Ratio IC50 (Homo sapiens [13]): 14; Ratio IC50 (Homo sapiens [14]): 7.1; Ratio IC50 (Homo sapiens [15]): 20
Cc1cc(Nc2ccc3ccccc3c2)n2ncnc2n1	–	–	Ratio IC50 (Plasmodium falciparum [16]): 29; Ratio IC50 (Plasmodium falciparum [17]): 3.5; Ratio IC50 (Plasmodium falciparum [18]): 2.3; Ratio IC50 (Plasmodium falciparum [5]): 0.69; Ratio IC50 (Plasmodium falciparum [19]): 19

The remaining molecules from weak to strong by IC50 [10], led by results:

IC50 [10]	IC50 [11]	Compound	also measured
32 µM	33 µM	Cc1cc(O)n2nc(SCc3ccc(Br)cc3)nc2n1	–
30 µM	19 µM	Cc1cc(C)cc(CSc2nc3nc(C)cc(O)n3n2)c1	–
29 µM	5.6 µM	Cc1cc(O)n2nc(SCc3cccc(Cl)c3)nc2n1	–
18 µM	3.5 µM	Cc1cc(O)n2nc(SCc3c(Cl)cccc3Cl)nc2n1	–
13 µM	> 100 µM	CCc1cc(O)n2nc(SCc3ccc(Cl)cc3)nc2n1	–
12 µM	28 µM	Cc1cc(O)n2nc(SCc3ccccc3Cl)nc2n1	–
9.5 µM	> 100 µM	Cc1cc(O)n2nc(SCc3ccccc3[N+](=O)[O-])nc2n1	–
